Assay results published in US11225491B2, “Thiazolo-pyrimidine HIV-1 reverse transcriptase inhibitor, preparation method therefor, and uses thereof” (priority 2018, dated 2022).
Read-outs that look alike come from different tables or passages of the source.

Tests used:
WT HIV-1 strain (IIIB) = experiment: Anti-HIV activity in MT-4 cells, MTT method, WT strain IIIB; assay type: cell-based; settings: for SI IIIB: selectivity index, ratio of CC50/EC50, strain IIIB
[1] = test system: HIV-1 K103N+Y181C (RES056); experiment: microbe, parasite or virus in culture; assay type: cell-based; settings: for EC50: Human immunodeficiency virus 1, MT4, read-out: EC50 RES056; for SI RES056: selectivity index, ratio of CC50/EC50, strain RES056
[2] = test system: mutant HIV-1 strain L100I; experiment: microbe, parasite or virus in culture; assay type: cell-based; settings: Human immunodeficiency virus 1, MT4, read-out: EC50 L100I
[3] = test system: mutant HIV-1 strain Y181C; experiment: microbe, parasite or virus in culture; assay type: cell-based; settings: Human immunodeficiency virus 1, MT4, read-out: EC50 Y181C
[4] = test system: mutant HIV-1 strain Y188L; experiment: microbe, parasite or virus in culture; assay type: cell-based; settings: Human immunodeficiency virus 1, MT4, read-out: EC50 Y188L
[5] = test system: mutant HIV-1 strain E138K; experiment: microbe, parasite or virus in culture; assay type: cell-based; settings: Human immunodeficiency virus 1, MT4, read-out: EC50 E138K
[6] = test system: mutant HIV-1 strain F227L + V106A; experiment: microbe, parasite or virus in culture; assay type: cell-based; settings: Human immunodeficiency virus 1, MT4, read-out: EC50 F227L + V106A
in vitro = settings: human
[7] = test system: mutant HIV-1 strain K103N; experiment: microbe, parasite or virus in culture; assay type: cell-based; settings: Human immunodeficiency virus 1, MT4, read-out: EC50 K103N
[8] = Cytotoxicity in mock-infected MT-4 cells, MTT method; settings: human
[9] = Human immunodeficiency virus 1, MT4, 50% protection of MT-4 cell cultures against HIV-1-induced cytopathic effect, MTT method, strain IIIB, read-out: EC50 IIIB

| SMILES | EC50 (WT HIV-1 strain (IIIB); [9]) | EC50 [1] | EC50 [2] | EC50 [3] | EC50 [4] | EC50 [5] | EC50 [6] | CC50 at 5 days (in vitro) | SI IIIB (WT HIV-1 strain (IIIB)) | SI RES056 [1] | EC50 [7] | EC50 (WT HIV-1 strain (IIIB); Human immunodeficiency virus 1, IIIB, MT4, read-out: EC50 IIIB) | CC50 at 5 days [8] |
| --- | --- | --- | --- | --- | --- | --- | --- | --- | --- | --- | --- | --- | --- |
| Cc1cc(C#N)cc(C)c1Oc1nc(Nc2ccc(C#N)cc2)nc(N)c1Br [ETR, Etravirine, reference compound] | 5.1 ± 0.8 nM | 45.4 ± 15.5 nM | 6 ± 1.5 nM | 14.5 ± 8.2 nM | 20.4 ± 8.6 nM | 9.7 ± 6.9 nM | 19.7 ± 7.3 nM | > 4590 nM | – | – | – | – | – |
| Cc1cc(C#N)cc(C)c1Oc1nc(NC2CCN(Cc3ccc(S(=O)(=O)N4CCOCC4)cc3)CC2)nc2ncsc12 [SZ4] | 3.7 ± 0.8 nM | 94.4 ± 0.5 nM | – | – | – | – | – | 17600 ± 2370 nM | 4665 | 187 | – | – | – |
| Cc1cc(C#N)cc(C)c1Oc1nc(NC2CCN(Cc3ccc(S(C)(=O)=O)cc3)CC2)nc2scnc12 [TZ3, 3,5-dimethyl-4-((5-((1-(4-(methylsulfonyl)benzyl)piperidin-4-yl)amino)thiazolo[5,4-d]pyrimidin-7-yl)oxy)benzonitrile] | 2.3 ± 0.7 nM | 18.1 ± 1.1 nM | 5.6 ± 0.7 nM | 7.5 ± 0.6 nM | 7.1 ± 0.2 nM | 6.6 ± 0.1 nM | 15.2 ± 3.4 nM | 14300 ± 5500 nM | 6212 | 791 | 3.3 ± 0.3 nM | – | – |
| Cc1ccnc2c1NC(=O)c1cccnc1N2C1CC1 [NVP, Nevirapine, reference compound] | – | > 9510 nM | – | – | – | – | – | – | – | – | – | 163 ± 41.2 nM | > 9510 nM |
| CNS(=O)(=O)c1ccc(CN2CCC(Nc3nc(Oc4c(C)cc(C#N)cc4C)c4scnc4n3)CC2)cc1 [SZ2] | 4.8 ± 0.1 nM | 19.4 ± 13.1 nM | 8.7 ± 0.3 nM | 7.3 ± 0.1 nM | 14 ± 2 nM | 9.2 ± 0.7 nM | 22.6 ± 3.8 nM | 13700 ± 3470 nM | 2828 | 710 | 5.1 ± 1 nM | – | – |
| Cc1cc(C#N)cc(C)c1Oc1nc(NC2CCN(Cc3ccc(S(C)(=O)=O)cc3)CC2)nc2ncsc12 [SZ6, 3,5-dimethyl-4-((5-((1-(4-(methylsulfonyl)benzyl)piperidin-4-yl)amino)thiazolo[4,5-d]pyrimidin-7-yl)oxy)benzonitrile] | 2.2 ± 0.6 nM | 27.4 ± 0.3 nM | 3.2 ± 0.7 nM | 7 ± 0.9 nM | 10.7 nM | 6.1 ± 1.1 nM | 15.4 ± 2.3 nM | 10900 ± 2750 nM | 4816 | 400 | 3.8 ± 2.8 nM | – | – |
| Cc1cc(C#N)cc(C)c1Oc1nc(NC2CCN(Cc3ccc(S(=O)(=O)NC4CC4)cc3)CC2)nc2ncsc12 [SZ3] | 5 ± 0.2 nM | 41.3 ± 5.2 nM | – | – | – | – | – | 23200 ± 4520 nM | 4564 | 561 | – | – | – |
| Cc1cc(C#N)cc(C)c1Oc1nc(NC2CCN(Cc3ccc(S(N)(=O)=O)cc3)CC2)nc2scnc12 [TZ1] | 1.6 ± 0.2 nM | 18.3 ± 2.3 nM | 9.6 ± 1.5 nM | 6.5 ± 1 nM | 10.8 ± 0.6 nM | 7.9 ± 0.1 nM | 16 ± 4.6 nM | 23200 ± 1750 nM | 14194 | 1265 | 1.9 ± 0.1 nM | – | – |
| Cc1cc(C#N)cc(C)c1Oc1nc(NC2CCN(Cc3ccc(C(N)=O)cc3)CC2)nc2scnc12 [TZ2] | 1.6 ± 0.1 nM | 28.1 ± 13 nM | 6.3 ± 2.8 nM | 5.1 ± 0.1 nM | 7.2 ± 0.2 nM | 5.2 ± 0.8 nM | 20.3 ± 2.6 nM | 27100 ± 1300 nM | 16412 | 965 | 1.6 ± 0.4 nM | – | – |
| Cc1cc(C#N)cc(C)c1Oc1nc(NC2CCN(Cc3ccc(S(N)(=O)=O)cc3)CC2)nc2ncsc12 [SZ1] | 2.2 ± 0.9 nM | 26.1 ± 1.5 nM | 7.8 ± 0.2 nM | 6.7 ± 1.2 nM | 11.4 ± 2.3 nM | 6.5 ± 1.5 nM | 18.8 ± 4.5 nM | 25100 ± 749 nM | 11071 | 961 | 3.9 ± 1.9 nM | – | – |
| Cc1cc(C#N)cc(C)c1Oc1nc(NC2CCN(Cc3ccc([N+](=O)[O-])cc3)CC2)nc2ncsc12 [SZ8, 3,5-dimethyl-4-((5-((1-(4-nitrobenzyl)piperidin-4-yl)amino)thiazolo[4,5-d]pyrimidin-7-yl)oxy)benzonitrile] | 3.4 ± 0.2 nM | 129 ± 4.5 nM | – | – | – | – | – | 5170 ± 134 nM | 1482 | 40 | – | – | – |
| Cc1cc(C#N)cc(C)c1Oc1nc(NC2CCN(Cc3ccc(C(N)=O)cc3)CC2)nc2ncsc12 [SZ5] | > 15600 nM | > 15600 nM | – | – | – | – | – | 15500 ± 2840 nM | <1 | <1 | – | – | – |
| Cc1cc(C#N)cc(C)c1Oc1nc(NC2CCN(Cc3cccc(C(N)=O)c3)CC2)nc2ncsc12 [SZ9] | 1.3 nM | 559 ± 8.5 nM | – | – | – | – | – | 27300 ± 965 nM | 20099 | 49 | – | – | – |
| Cc1cc(C#N)cc(C)c1Oc1nc(NC2CCN(Cc3ccc([N+](=O)[O-])cc3)CC2)nc2scnc12 [TZ5, 3,5-dimethyl-4-((5-((1-(4-nitrobenzyl)piperidin-4-yl)amino)thiazolo[5,4-d]pyrimidin-7-yl)oxy)benzonitrile] | 8.2 ± 1.9 nM | 126 ± 16 nM | – | – | – | – | – | 5680 ± 423 nM | 687 | 45 | – | – | – |
| Cc1cc(C#N)cc(C)c1Oc1nc(NC2CCN(Cc3ccncc3)CC2)nc2ncsc12 [SZ7, 3,5-dimethyl-4-((5-((1-(pyridin-4-ylmethyl)piperidin-4-yl)amino)thiazolo[4,5-d]pyrimidin-7-yl)oxy)benzonitrile] | 1.8 ± 0.4 nM | 24.7 ± 1.9 nM | 5.6 ± 2.2 nM | 5.8 ± 2.2 nM | 7.7 ± 1 nM | 5.5 ± 1.2 nM | 32.9 ± 23.8 nM | 30300 ± 760 nM | 16818 | 1227 | 1.9 ± 0.6 nM | – | – |
| Cc1cc(C#N)cc(C)c1Oc1nc(NC2CCN(Cc3cccc(C(N)=O)c3)CC2)nc2scnc12 [TZ6] | 3 ± 0.6 nM | 222 ± 47 nM | – | – | – | – | – | 28800 ± 634 nM | 9565 | 130 | – | – | – |
| Cc1cc(C#N)cc(C)c1Oc1nc(NC2CCN(Cc3ccncc3)CC2)nc2scnc12 [TZ4, 3,5-dimethyl-4-((5-((1-(pyridin-4-ylmethyl)piperidin-4-yl)amino)thiazolo[5,4-d]pyrimidin-7-yl)oxy)benzonitrile] | 2.7 nM | 26.8 ± 0.1 nM | 13.7 ± 7.1 nM | 5.8 ± 0.1 nM | 6.6 ± 1 nM | 6.5 ± 0.3 nM | 30.9 ± 6.2 nM | 28700 ± 489 nM | 10447 | 1074 | 3.3 ± 2.3 nM | – | – |
